Measured values taken from PMC8592951, “9-Methyl-β-carboline inhibits monoamine oxidase activity and stimulates the expression of neurotrophic factors by astrocytes” (Journal of Neural Transmission, 2020).

Tests used:
MAO-B = biological target: T1, MAO-B (Homo sapiens, UniProt P27338); test: MAO-Glo luminescence enzyme activity assay with purchased human MAO-B; assay type: biochemical
T1 construct: gene MAOB
T1 sequence (P27338 2-520): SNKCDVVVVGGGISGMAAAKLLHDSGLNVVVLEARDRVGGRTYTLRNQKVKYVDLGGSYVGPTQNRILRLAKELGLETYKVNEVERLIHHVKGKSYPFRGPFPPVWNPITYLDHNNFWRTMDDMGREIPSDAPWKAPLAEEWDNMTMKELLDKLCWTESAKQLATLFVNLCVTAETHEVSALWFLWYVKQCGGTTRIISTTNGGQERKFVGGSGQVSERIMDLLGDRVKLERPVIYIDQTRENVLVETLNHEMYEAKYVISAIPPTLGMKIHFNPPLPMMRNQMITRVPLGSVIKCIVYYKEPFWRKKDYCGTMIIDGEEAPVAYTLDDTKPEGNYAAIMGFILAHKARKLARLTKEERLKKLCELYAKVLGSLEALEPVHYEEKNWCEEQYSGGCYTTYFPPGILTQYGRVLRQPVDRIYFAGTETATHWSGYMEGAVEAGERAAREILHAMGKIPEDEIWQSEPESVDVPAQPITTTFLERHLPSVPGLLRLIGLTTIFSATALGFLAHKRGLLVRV

MAO-A = biological target: T2, MAO-A (Homo sapiens, UniProt P21397); test: MAO-Glo luminescence enzyme activity assay; assay type: biochemical
T2 construct: gene MAOA
T2 sequence (P21397 1-527): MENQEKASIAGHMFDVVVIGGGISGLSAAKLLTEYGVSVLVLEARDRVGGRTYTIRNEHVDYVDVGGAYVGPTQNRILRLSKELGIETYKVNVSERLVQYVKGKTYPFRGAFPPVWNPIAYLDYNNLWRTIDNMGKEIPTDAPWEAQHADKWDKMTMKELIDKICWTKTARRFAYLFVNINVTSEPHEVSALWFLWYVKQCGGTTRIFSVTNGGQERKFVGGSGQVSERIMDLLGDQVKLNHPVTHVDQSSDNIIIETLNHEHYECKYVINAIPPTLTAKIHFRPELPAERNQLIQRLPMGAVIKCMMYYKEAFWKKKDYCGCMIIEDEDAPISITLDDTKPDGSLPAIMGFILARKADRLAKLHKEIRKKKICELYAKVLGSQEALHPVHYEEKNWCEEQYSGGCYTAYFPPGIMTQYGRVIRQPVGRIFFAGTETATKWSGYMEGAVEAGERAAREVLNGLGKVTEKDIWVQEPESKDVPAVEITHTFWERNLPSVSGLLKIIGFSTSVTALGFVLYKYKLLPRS

Cn1c2ccccc2c2ccncc21 [9-methyl-β-carboline]
IC50 (MAO-B): 15.5 µM
IC50 (MAO-A): 1000 nM
